In US5658890A, “C-nucleoside isostere of nicotinamide adenine dinucleotide, analogs thereof and use as anti-cancer agent” (Sloan-Kettering Institute for Cancer Research, priority 1995, dated 1997):
Where two headings read alike, the source gives them in different places.

Tests used:
Human IMPDH type II = target: T1, Human IMPDH type II (Homo sapiens, UniProt P12268); assay: Inhibition of human IMPDH type II by TAD analogues; assay type: biochemical
T1 construct: Dr. George D. Markham, Institute for Cancer Research, Fox Chase Cancer Center, Fox Chase, Pa
Experimental: Purified human recombinant IMPDH-II was obtained from Dr. George D. Markham of the Institute for Cancer Research, Fox Chase Cancer Center, Fox Chase, Pa. Horse liver ADH was obtained in crystalline form from Boehringer Mannheim Biochemicals, Indianapolis. β-Nicotinamide adenine dinucleotide (NAD) in crystalline free acid form was also obtained from Boehringer. Inosine 5'-monophosphate (IMP) was purchased from Sigma Chemical Co., St. Louis as the disodium salt. All solutions were prepared using nano-pure water.
Kinetic constants of the inhibitors with respect to NAD were obtained by monitoring spectrophotometrically the rate of production of NADH during the reaction.
Human IMPDH type II was stored at -70° C. in buffer containing 20 mM KCl, 1 mM EDTA, 1 mM DTT and 20 mM Tris-HCl adjusted to pH 8 at 23° C. In preparation for the assays, a frozen aliquot was thawed rapidly and filtered through a 0.45 μm acetate filter. Protein concentration was determined from a Coomassie Assay. In some cases the enzyme was diluted 4:1 in similar 20 mM Tris buffer. NAD and IMP solutions were prepared based on molecular weight.
Combination of the reactants was performed as follows: An aliquot of substrate solution was pipetted down one side of a cuvet, one of co-factor down another side, and inhibitor down a third. The volume was brought to 990 μL with reaction buffer and the cuvet was agitated. This mixture was allowed to incubate in the spectrophotometer sample holder for five minutes before the reaction was started, the temperature held at 37° C. by a circulating water bath. The reaction was initiated by the introduction of 10 μL of enzyme solution on a mixing plunger, and NADH production was monitored for between two and 10 minutes, depending on the activity of the protein solution.
The uninhibited rate of reaction as a function of cofactor concentration was first established. Velocities at four NAD concentrations and saturating substrate concentrations were measured and Km for NAD obtained. Inhibitor was then introduced to the reaction mixture with an NAD concentration in the vicinity of Km.
Lineweaver-Burk plots were used to assess the quality of the data and to initially characterize the mode of inhibition with respect to NAD. […] Consequently, values of kii (intercept) and kis (slope) reported in Table I were obtained from direct least squares fits to the expression:
where vo is the measured initial rate, Vm is the maximum rate, Km is the Michaelis constant of NAD, and [A] is concentration of NAD.

[1] = target: T2, horse liver alcohol dehydrogenase (LADH) (Equus caballus, UniProt P00327); assay: Preliminary assays of horse liver alcohol dehydrogenase (LADH) inhibition; assay type: biochemical; conditions: ethanol 1.2 mM, pH 8, read-out: level of inhibition of horse liver alcohol dehydrogenase (LADH)
T2 construct: Horse liver ADH was obtained in crystalline form; purchased Boehringer Mannheim Biochemicals, Indianapolis; host or cells: horse liver
T2 sequence (P00327 whole entry): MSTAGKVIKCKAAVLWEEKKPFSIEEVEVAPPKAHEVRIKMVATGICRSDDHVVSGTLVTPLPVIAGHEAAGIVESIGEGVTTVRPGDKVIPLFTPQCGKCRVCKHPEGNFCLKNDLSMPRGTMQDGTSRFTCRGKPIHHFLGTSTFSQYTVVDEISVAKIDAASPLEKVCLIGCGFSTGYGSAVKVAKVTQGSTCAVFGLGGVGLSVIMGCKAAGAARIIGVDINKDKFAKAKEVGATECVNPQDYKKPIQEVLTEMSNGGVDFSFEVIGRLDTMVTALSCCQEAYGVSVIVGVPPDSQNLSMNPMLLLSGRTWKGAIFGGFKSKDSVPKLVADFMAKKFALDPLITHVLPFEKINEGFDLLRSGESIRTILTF
Experimental: Purified human recombinant IMPDH-II was obtained from Dr. George D. Markham of the Institute for Cancer Research, Fox Chase Cancer Center, Fox Chase, Pa. Horse liver ADH was obtained in crystalline form from Boehringer Mannheim Biochemicals, Indianapolis. β-Nicotinamide adenine dinucleotide (NAD) in crystalline free acid form was also obtained from Boehringer. Inosine 5'-monophosphate (IMP) was purchased from Sigma Chemical Co., St. Louis as the disodium salt. All solutions were prepared using nano-pure water. Kinetic constants of the inhibitors with respect to NAD were obtained by monitoring spectrophotometrically the rate of production of NADH during the reaction. The course of the reaction was followed by measuring the changing absorbance of the reaction mixture at 340 nm, the absorbance peak for NADH, using a Beckman DU-65 spectrophotometer, and an extinction of 6.22 A mM^-1 cm^-1 for the reduced cofactor.(51) Preliminary assays of alcohol dehydrogenase were performed in a similar manner to that described above. LADH in crystalline suspension was spun down to a pellet and dissolved in 100 mM Tris-HCl buffer containing 100 mM KCl adjusted to pH 8 at 23° C. Stock solutions of NAD and ethanol were prepared in buffer based on molecular weight and volume, respectively. Ethanol was introduced as an aliquot of stock solution and its concentration was kept constant at 1.2 mM while NAD concentration was varied by serial dilution of the stock solution.

cell membranes = conditions: compared with tiazofurin; personal communication (ref. 35); cited from earlier work
[2] = tested on: murine leukemia L1210 cells; assay: Cytotoxicity to murine leukemia L1210 cells; assay type: cell-based; conditions: Mus musculus, incubated 24 and 48 hr, cells counted in a Coulter counter, read-out: inhibits the proliferation of L1210 cells by 50% (IC50)
Experimental: 1. Cytoxicity of 5-(β-D-ribofuranosyl)nicotinamide-(5'-5")-adenosine pyrophosphate (Compound 2, CNAD) to murine leukemia L1210 cells.
Murine leukemia L1210 cells were grown in RPMI 1640 medium. Logarithmically growing cells were incubated with various concentrations of CNAD for 24 and 48 hr periods and the cytoxicity determined by counting the cells in a Coulter counter.

[3] = target: T3, horse liver alcohol dehydrogenase (ADH) (Equus caballus, UniProt P00327); assay: Inhibition of horse liver alcohol dehydrogenase (ADH), NADH absorbance at 340 nm; assay type: biochemical; conditions: for Ki: pH 8.0
T3 construct: horse liver alcohol dehydrogenase (ADH); from tissue; host or cells: horse liver
T3 sequence (P00327 whole entry): as above
Experimental: 2. Inhibition of horse liver alcohol dehydrogenase (ADH) and bovine glutamate dehydrogenase (GDH) Rate measurements for each of the dehydrogenases used in this study are based on the spectral properties of NADH. […] Rates, using absorbance measurements, were calculated using a millimolar extinction coefficient of 6.22/cm for NADH. Alcohol dehydrogenase assays were run at pH 8.0, using 0.1M sodium phosphate buffer. […] All kinetic assays were run at least in duplicate. Initial values of inhibition constants were estimated from Lineweaver-Burk plots, using linear regression to obtain values for the slope and intercept of each line. Inhibition was judged to be competitive if the values obtained for the intercepts of the appropriate polots differed by less than three standard deviations as determined by linear regression. Values for the inhibition constant, Kis was obtained using the relationship: […] where S(+) and S(-) are the slopes of the plots in the presence and absence of inhibitor, respectively, and [I] is the concentration of total added inhibitor. Where a noncompetitive pattern of inhibition was observed, a similar analysis was used to obtain Kii. Km for conenzyme was obtained from the slope and intercept obtained in plots in the absence of inhibitor, using the relationship: Km =[…]. Values of effective inhibition constants and patterns of inhibition for CNAD binding to ADH were obtained by direct least-squares fits to the nonreciprocal forms of the Michaelis-Menten rate equations. Kinetic data were fit to the following relationships, assuming both competitive and noncompetitive inhibition respectively: vo =[…]]} vo =[…] vo is the initial reaction rate, Vm is the maximal rate, and Km and [A] the Michaelis constant and concentration of the variable substrate, respectively. The pattern of inhibition considered to best account for the observed data was that giving both the smallest residuals between observed and calculated values, and the smallest standard errors in the computed kinetics constants. […] Derivation of this rate equation assumes the presence of a tight binding inhibitor, i.e., that [I]~[E]. In this experiment both inhibitor and enzyme concentration were varied. Initial rates vo were measured at total concentrations of CNAD ([I]) of 0, 2.4, 9.6, and 19.2 nM over four concentrations of ADH ([E]). Concentrations of ethanol and NAD were fixed at 1.2 […] and 87 μM at pH 8.0. The apparent inhibition constant with respect to NAD, Ki', was then obtained by non-linear least-squares fit to the rate equation under the array of experimental conditions employed. The true rate constant Ki was obtained from the apparent rate constant Ki was obtained from the apparent rate constant Ki, via the relationship: […]

[4] = target: bovine glutamate dehydrogenase (GDH) (Bos taurus, UniProt P00366); assay: Inhibition of bovine glutamate dehydrogenase (GDH); assay type: biochemical
Sequence of bovine glutamate dehydrogenase (GDH) (P00366 58-558): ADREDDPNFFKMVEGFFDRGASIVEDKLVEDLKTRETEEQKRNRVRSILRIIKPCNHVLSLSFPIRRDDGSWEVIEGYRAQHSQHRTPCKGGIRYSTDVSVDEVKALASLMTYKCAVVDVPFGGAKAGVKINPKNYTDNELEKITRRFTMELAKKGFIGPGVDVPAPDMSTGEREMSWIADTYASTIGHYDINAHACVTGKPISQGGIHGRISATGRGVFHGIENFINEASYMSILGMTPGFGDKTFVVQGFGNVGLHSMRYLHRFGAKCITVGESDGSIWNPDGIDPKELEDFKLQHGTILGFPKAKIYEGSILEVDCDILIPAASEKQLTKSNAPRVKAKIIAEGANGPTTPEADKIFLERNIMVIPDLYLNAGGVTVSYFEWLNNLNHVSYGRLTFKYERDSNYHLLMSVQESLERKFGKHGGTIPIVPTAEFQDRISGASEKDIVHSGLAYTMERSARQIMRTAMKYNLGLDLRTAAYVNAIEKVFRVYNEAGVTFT
Experimental: 2. Inhibition of horse liver alcohol dehydrogenase (ADH) and bovine glutamate dehydrogenase (GDH)
Rate measurements for each of the dehydrogenases used in this study are based on the spectral properties of NADH. In assays with NAD as a substrate, rates were determined by measuring the increase in absorbance at 340 nm resulting from the conversion of NAD to NADH. Rates, using absorbance measurements, were calculated using a millimolar extinction coefficient of 6.22/cm for NADH.
Alcohol dehydrogenase assays were run at pH 8.0, using 0.1M sodium phosphate buffer. Glutamate dehydrogenase assays were at pH 7.0 in 0.1M sodium phosphate buffer, containing 10 μm EDTA. All kinetic assays were run at least in duplicate.
Initial values of inhibition constants were estimated from Lineweaver-Burk plots, using linear regression to obtain values for the slope and intercept of each line. Inhibition was judged to be competitive if the values obtained for the intercepts of the appropriate polots differed by less than three standard deviations as determined by linear regression. Values for the inhibition constant, Kis was obtained using the relationship:
where S(+) and S(-) are the slopes of the plots in the presence and absence of inhibitor, respectively, and [I] is the concentration of total added inhibitor. […]

[5] = tested on: inosine monophosphate dehydrogenase (IMPDH); assay: Inhibition of inosine monophosphate dehydrogenase by the NAD analog; assay type: biochemical
[6] = tested on: lactate dehydrogenase (LDH); assay: Inhibition of lactate dehydrogenase by the NAD analog; assay type: biochemical
[7] = tested on: malate dehydrogenase (MDH); assay: Inhibition of malate dehydrogenase by the NAD analog; assay type: biochemical
[8] = IMPDH type II, read-out: Kis (binding)
[9] = NAD variable substrate, IMP constant at 100 μM, non-competitive, 37° C., read-out: Kii
[10] = NAD variable substrate, IMP constant at 100 μM, non-competitive, 37° C., read-out: Kis

Row | Structure (SMILES) | Ki (Human IMPDH type II; [8]) [µM] | Ki (Human IMPDH type II; [9]) [µM] | Ki (Human IMPDH type II; [10]) [µM] | Ki [1] [µM] | pattern of inhibition of ADH with respect to NAD [3] | also measured
1 | NC(=O)c1csc([C@@H]2O[C@H](COP(=O)(O)OP(=O)(O)OC[C@H]3O[C@@H](n4cnc5c(N)ncnc54)[C@@H](F)[C@@H]3O)[C@@H](O)[C@H]2O)n1 [Compound 5] | 2.9 | 2.9 ± 0.5 | 13 | > 10000 |  | 
2 | NC(=O)c1csc([C@@H]2O[C@H](COP(=O)(O)OP(=O)(O)OC[C@H]3O[C@@H](n4cnc5c(N)ncnc54)[C@H](O)[C@@H]3F)[C@@H](O)[C@H]2O)n1 [Compound 4, P^1-(Tiazofurin-5'-yl)-P^2-(3'-deoxy-3'-fluoroadenosin-5'-yl)pyrophosphate] | 0.7 | 0.7 ± 0.1 | 1.5 ± 0.6 | 100 |  | 
3 | NC(=O)c1csc([C@@H]2O[C@H](COP(=O)(O)OP(=O)(O)OC[C@H]3O[C@@H](n4cnc5c(N)ncnc54)[C@H](F)[C@@H]3O)[C@@H](O)[C@H]2O)n1 [Compound 3, P^1-(Tiazofurin-5'-yl)-P^2-(2'-deoxy-2'-fluoroadenosin 5'-yl)pyrophosphate] | 0.5 | 0.5 ± 0.1 | 6 ± 12 | 100 |  | 
4 | NC(=O)c1csc([C@@H]2O[C@H](COP(=O)(O)C(F)(F)P(=O)(O)OC[C@H]3O[C@@H](n4cnc5c(N)ncnc54)[C@H](O)[C@@H]3O)[C@@H](O)[C@H]2O)n1 [β-CF2 -TAD, β-difluoromethylene TAD] |  | 0.17 ± 0.03 | 0.3 ± 0.2 |  |  | Ki (Human IMPDH type II; IMPDH type II, read-out: Ki): 0.17 µM; penetration of cell membranes (cell membranes): can penetrate cell membranes although not as efficiently as tiazofurin
5 | NC(=O)c1cncc([C@@H]2O[C@H](COP(=O)(O)OP(=O)(O)OC[C@H]3O[C@@H](n4cnc5c(N)ncnc54)[C@H](O)[C@@H]3O)[C@@H](O)[C@H]2O)c1 [CNAD, 5-(β-D-ribofuranosyl)nicotinamide-(5'-5")-adenosine pyrophosphate] |  |  |  |  | non-competitive | IC50 [2]: 7 µM; inhibitory activity against alcohol dehydrogenase from horse liver (in words) [3]: highly potent and selective inhibitory activity; Ki ([3]; direct least-squares fit to Michaelis-Menten rate equations, read-out: apparent Ki (Ki') with respect to NAD): 0.006 µM; Ki ([3]; non-competitive, with respect to NAD, read-out: Ki, inhibition of ADH): 0.002 µM; pattern of inhibition of GDH with respect to NAD [4]: competitive; Ki ([4]; competitive, pH 7.0): 15 µM; pattern of inhibition of IMPDH with respect to NAD [5]: competitive; pattern of inhibition of LDH with respect to NAD [6]: competitive; pattern of inhibition of MDH with respect to NAD [7]: competitive
6 | NC(=O)c1cccc([C@@H]2O[C@H](COP(=O)(O)OP(=O)(O)OC[C@H]3O[C@@H](n4cnc5c(N)ncnc54)[C@H](O)[C@@H]3O)[C@@H](O)[C@H]2O)n1 [C-PAD, 6-(β-D-ribofuranosyl)picolinamide-(5'-5")adenosine pyrophosphate] |  |  |  |  | competitive | Ki ([3]; competitive, read-out: Ki, inhibition of ADH with respect to NAD): 20 µM
